# Source: patent US11311010B2, “Lignin biomaterial as agricultural drug carrier” (Max-Planck-Gesellschaft zur Förderung der Wissenschaften …, priority 2016, dated 2022)
# Values joined by “and” are separate entries in the source; they are usually repeats but may differ in a detail not shown here. Equal values may be shown once.
# Legend:
# [1] = test system: Phaeomoniella chlamydospora; assay: In vitro test in 96-well plates (spore germination, optical density); type: cell-based; conditions: pos. control 50 μg, Pch, well row E
# Method: (§1) The lignin particle-solutions were pipetted in various concentrations (1, 5 and 10 μg/mL) into the 96 wells. Several differing nanoparticles were tested (see FIGS. 10 and 12). Afterwards a spore suspension (in minimal medium) of Esca associated fungi, each fungus separately in three wells, was added to the lignin-particle solution. The final volume was 200 μl per well and 500 spores in those 200 μl (means 2,500 spores/mL). The 96-well plate was incubated at 26° C. for 48 h on a shaker with 120 rpm. The optical density was determined after 24 and 48 h using a lab-bench plate reader (BioRad) at a wavelength of 600 nm.
# (§2) […] The optical density of the medium without spores was also measured.
# (§3) The results of three replicates were afterwards combined to calculate the average value of all samples (see also the standard deviation in FIG. 10).
# (§4) The numbers 1 to 10 and the letters A to H are the labeling of the 96-well plate as well as the grid of the test system. The Numbers 66 to 84 are explained as the tested Lignin-particle solutions, they differ in their composition and fungicide concentration (see also Table 2). The optical density is […] to the activity of the fungicide. […] Therefore higher values of the optical density stand for more sporulation and fungal growths and less biological activity of the lignin formulation (e.g., in A1, A2). A low optical density is characteristic for a high fungal toxicity and bioactivity (see in A5 and A6).
# [2] = test system: Phaeoacremonium aleophilum; assay: as above; type: cell-based; conditions: pos. control 50 μg, Pal, well row F
# Method: as §1, §2, §3, §4
smiles,measurement,setting,value
CP(=O)(O)CCC(N)C(=O)O (stereo not shown) [Glufosinat-Ammonium],optical density measured at 600 nm,[1]; first plate block,0.192 and 0.180 and 0.200
same,optical density measured at 600 nm,[1]; second plate block,0.201 and 0.192 and 0.203
same,optical density measured at 600 nm,[2]; first plate block,0.220 and 0.212 and 0.206
same,optical density measured at 600 nm,[2]; second plate block,0.228 and 0.219 and 0.204
